From article PMC11374673, “Discovery of isoquinoline sulfonamides as allosteric gyrase inhibitors with activity against fluoroquinolone-resistant bacteria” (Nature Chemistry, 2024)
≈ marks a conversion by molar mass, not a printed value. Where “and” joins values, the source holds several entries; their conditions need not be identical. Identical values can stand only once. Entries after “also recorded” stand apart in the source; their conditions may differ. Like-named read-outs stand apart in the source and are kept apart here.

What was measured:
E. coli W3110 = test: MIC by broth microdilution; type: cell-based, Escherichia coli; conditions: for MIC: broth microdilution, read-out: MIC E. coli W3110; for antimicrobial activity: relative to parent compound
Summary of the method: (§1)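 Broth microdilution in CAMHB: twofold compound series inoculated with 100-fold-diluted bacteria from exponential growth (OD600 0.5, 37 °C); kanamycin 50 µg ml^−1 added for Keio collection strains. Overnight incubation, 37 °C, 600 r.p.m. shaking.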

HEK293T = test: Cytotoxicity assay (MTT); type: cell-based, human; conditions: for MTT data (raw reading) / MTT data (raw readout): HEK293T; for IC50: Homo sapiens, HEK-293T, 24 h, MTT
Experimental: (§2) HepG2 (ATCC HB-8065) and HEK293T (ATCC CRL-3216) cell lines were cultured at 37 °C and 7% CO2 in Dulbecco’s modified Eagle medium (Sigma-Aldrich, D6546) with GlutaMax, penicillin (100 µg ml^−1), streptomycin (100 µg ml^−1) and 10% fetal calf serum. Cells were passaged twice a week by first detaching using 0.05% trypsin in phosphate-buffered saline (PBS) and then diluting to appropriate confluence. Compound cytotoxicity was evaluated using the standard (3-(4,5-dimethylthiazol-2-yl)-2,5-diphenyltetrazolium bromide (MTT) assay protocol (MTT assay protocol for cell viability and proliferation, Merck) with slight changes. HepG2 and HEK293T cells were seeded at a density of 1.5 × 10^4 cells per well in a clear 96-well tissue culture treated plate in a final volume of 100 µl in Dulbecco’s modified Eagle medium, supplemented with fetal bovine serum (1%), GlutaMax and penicillin/streptomycin. Cells were incubated for 24 h at 37 °C, 7% CO2 to allow cells to attach to the plates. […] Incubation was done for 24 h at 37 °C, 7% CO2. After the incubation, MTT was added to each well at a final concentration of 0.40 mg ml^−1. The plates were then incubated for 2 h at 37 °C, 7% CO2. Medium was carefully removed via suction, and purple formazan crystals were resuspended in 100 µl DMSO. Absorbance was read at 570 nm using a Clariostar plate reader with MARS (V4.20). The data were then analysed with GraphPad Prism software. IC50 values were calculated using non-linear fitted curve with variable slope settings, with values adjusted for background (plotted absorbance (ABS)sample = (ABSsample – ABSbackground) / (ABSvehicle – ABSbackground)). Technical triplicates for each condition were used, along with biological duplicates.

HepG2 = test: Cytotoxicity assay (MTT); type: cell-based, human; conditions: for IC50: MTT, 24 h
Experimental: as §2

K. pneumoniae ATCC 29665 = test: MIC by broth microdilution; type: cell-based, Klebsiella pneumoniae; conditions: read-out: MIC K. pneumoniae ATCC 29665
Summary of the method: as §1

[1] = Klebsiella pneumoniae, ATCC29665, broth microdilution
[2] = 0.023 uM, experiment n = 1, technical triplicates
[3] = 0.023 uM, experiment n = 2, technical triplicates
[4] = 0.068 uM, experiment n = 1, technical triplicates
[5] = 0.068 uM, experiment n = 2, technical triplicates
[6] = 0.21 uM, experiment n = 1, technical triplicates
[7] = 0.21 uM, experiment n = 2, technical triplicates
[8] = 0.62 uM, experiment n = 1, technical triplicates
[9] = 0.62 uM, experiment n = 2, technical triplicates
[10] = 1.85 uM, experiment n = 1, technical triplicates
[11] = 1.85 uM, experiment n = 2, technical triplicates
[12] = HepG2, 0.023 uM, experiment n = 1, technical triplicates
[13] = HepG2, 0.023 uM, experiment n = 2, technical triplicates
[14] = HepG2, 0.068 uM, experiment n = 1, technical triplicates
[15] = HepG2, 0.068 uM, experiment n = 2, technical triplicates
[16] = HepG2, 0.21 uM, experiment n = 1, technical triplicates
[17] = HepG2, 0.21 uM, experiment n = 2, technical triplicates
[18] = HepG2, 0.62 uM, experiment n = 1, technical triplicates
[19] = HepG2, 0.62 uM, experiment n = 2, technical triplicates
[20] = HepG2, 1.85 uM, experiment n = 1, technical triplicates
[21] = HepG2, 1.85 uM, experiment n = 2, technical triplicates

## O=S(=O)(NC[C@@H]1CC[C@@H](c2ccc(-c3ccc(F)nc3)cc2)N1)c1cccc2cnccc12 [Compound 98]
E. coli W3110; Escherichia coli, W3110, WT
  MIC: > 50 µM
E. coli W3110; WT
  MIC: > 50 µM
E. coli W3110
  antimicrobial activity: completely inactive
HEK293T; 0.023 uM, n = 1
  MTT data (raw reading): 1.493 and 1.422 and 1.498
HEK293T; 0.023 uM, n = 2
  MTT data (raw reading): 1.187 and 1.056 and 1.058
HEK293T; 0.068 uM, n = 1
  MTT data (raw reading): 1.655 and 1.492 and 1.570
HEK293T; 0.068 uM, n = 2
  MTT data (raw reading): 1.098 and 1.078 and 1.080
HEK293T; 0.21 uM, n = 1
  MTT data (raw reading): 1.461 and 1.519 and 1.638
HEK293T; 0.21 uM, n = 2
  MTT data (raw reading): 1.171 and 1.012 and 1.113
HEK293T; 0.62 uM, n = 1
  MTT data (raw reading): 1.554 and 1.331 and 1.351
HEK293T; 0.62 uM, n = 2
  MTT data (raw reading): 1.166 and 1.093 and 0.989
HEK293T; 1.85 uM, n = 1
  MTT data (raw reading): 1.381 and 1.338 and 1.408
HEK293T; 1.85 uM, n = 2
  MTT data (raw reading): 1.030 and 0.960 and 0.941
HEK293T; 5.6 uM, n = 1
  MTT data (raw reading): 1.292 and 1.223 and 1.327
HEK293T; 5.6 uM, n = 2
  MTT data (raw reading): 0.968 and 1.003 and 0.916
HEK293T; 16.7 uM, n = 1
  MTT data (raw reading): 1.160 and 1.126 and 1.075
HEK293T; 16.7 uM, n = 2
  MTT data (raw reading): 0.762 and 0.627 and 0.780
HEK293T; 50 uM, n = 1
  MTT data (raw reading): 0.797 and 0.734
HEK293T; 50 uM, n = 2
  MTT data (raw reading): 0.478 and 0.528
HEK293T
  IC50: 49 µM
HepG2; HepG2, 0.023 uM, n = 1
  MTT data (raw reading): 0.370 and 0.364 and 0.367
HepG2; HepG2, 0.023 uM, n = 2
  MTT data (raw reading): 0.490 and 0.437 and 0.362
HepG2; HepG2, 0.068 uM, n = 1
  MTT data (raw reading): 0.458 and 0.420 and 0.439
HepG2; HepG2, 0.068 uM, n = 2
  MTT data (raw reading): 0.379 and 0.325 and 0.398
HepG2; HepG2, 0.21 uM, n = 1
  MTT data (raw reading): 0.404 and 0.366 and 0.380
HepG2; HepG2, 0.21 uM, n = 2
  MTT data (raw reading): 0.373 and 0.308 and 0.356
HepG2; HepG2, 0.62 uM, n = 1
  MTT data (raw reading): 0.411 and 0.337 and 0.367
HepG2; HepG2, 0.62 uM, n = 2
  MTT data (raw reading): 0.419 and 0.335 and 0.320
HepG2; HepG2, 1.85 uM, n = 1
  MTT data (raw reading): 0.394 and 0.411 and 0.409
HepG2; HepG2, 1.85 uM, n = 2
  MTT data (raw reading): 0.343 and 0.331 and 0.334
HepG2; HepG2, 5.6 uM, n = 1
  MTT data (raw reading): 0.374 and 0.346 and 0.373
HepG2; HepG2, 5.6 uM, n = 2
  MTT data (raw reading): 0.307 and 0.313 and 0.306
HepG2; HepG2, 16.7 uM, n = 1
  MTT data (raw reading): 0.262 and 0.289 and 0.283
HepG2; HepG2, 16.7 uM, n = 2
  MTT data (raw reading): 0.250 and 0.271 and 0.247
HepG2; HepG2, 50 uM, n = 1
  MTT data (raw reading): 0.250 and 0.255 and 0.242
HepG2; HepG2, 50 uM, n = 2
  MTT data (raw reading): 0.199 and 0.179 and 0.169
HepG2; Homo sapiens, HepG2, 24 h
  IC50: 66 µM
HepG2
  IC50: > 50 µM
K. pneumoniae ATCC 29665; [1]
  MIC: > 50 µM
K. pneumoniae ATCC 29665; broth microdilution
  MIC: > 50 µM

## O=S(=O)(NCCNCc1ccc(-c2ccc(F)nc2)c(F)c1)c1cccc2cnccc12 [Compound 89]
E. coli W3110; Escherichia coli, W3110, WT
  MIC: 6.25 µM (≈ 2.84 µg/mL)
HEK293T; [2]
  MTT data (raw readout): 1.460 and 1.327 and 1.155
HEK293T; [3]
  MTT data (raw readout): 1.578 and 1.464 and 1.567
HEK293T; [4]
  MTT data (raw readout): 1.383 and 1.285 and 1.405
HEK293T; [5]
  MTT data (raw readout): 1.657 and 1.634 and 1.543
HEK293T; [6]
  MTT data (raw readout): 1.422 and 1.388 and 1.379
HEK293T; [7]
  MTT data (raw readout): 1.511 and 1.515 and 1.445
HEK293T; [8]
  MTT data (raw readout): 1.302 and 1.254 and 1.287
HEK293T; [9]
  MTT data (raw readout): 1.280 and 1.339 and 1.417
HEK293T; [10]
  MTT data (raw readout): 1.134 and 1.184 and 1.193
HEK293T; [11]
  MTT data (raw readout): 1.303 and 1.294 and 1.289
HEK293T; 5.6 uM, experiment n = 1, technical triplicates
  MTT data (raw readout): 0.891 and 0.915 and 0.826
HEK293T; 5.6 uM, experiment n = 2, technical triplicates
  MTT data (raw readout): 0.987 and 0.926 and 0.889
HEK293T; 16.7 uM, experiment n = 1, technical triplicates
  MTT data (raw readout): 0.240 and 0.299 and 0.212
HEK293T; 16.7 uM, experiment n = 2, technical triplicates
  MTT data (raw readout): 0.285 and 0.310 and 0.251
HEK293T
  IC50: 8.9 µM
HepG2; [12]
  MTT data (raw readout): 1.211 and 1.032 and 1.095
HepG2; [13]
  MTT data (raw readout): 0.940 and 0.892 and 0.823
HepG2; [14]
  MTT data (raw readout): 1.059 and 1.047 and 0.930
HepG2; [15]
  MTT data (raw readout): 0.912 and 0.982 and 0.829
HepG2; [16]
  MTT data (raw readout): 1.201 and 1.007 and 1.154
HepG2; [17]
  MTT data (raw readout): 0.862 and 0.878 and 0.892
HepG2; [18]
  MTT data (raw readout): 0.908 and 1.012 and 1.031
HepG2; [19]
  MTT data (raw readout): 0.861 and 0.862 and 0.848
HepG2; [20]
  MTT data (raw readout): 0.964 and 0.831 and 0.983
HepG2; [21]
  MTT data (raw readout): 0.918 and 0.866 and 0.845
HepG2; HepG2, 5.6 uM, experiment n = 1, technical triplicates
  MTT data (raw readout): 0.840 and 0.880 and 0.890
HepG2; HepG2, 5.6 uM, experiment n = 2, technical triplicates
  MTT data (raw readout): 0.798 and 0.838 and 0.803
HepG2; Homo sapiens, HepG2, 24 h
  IC50: 6.8 µM
K. pneumoniae ATCC 29665; [1]
  MIC: 12.5 µM (≈ 5.68 µg/mL)

## O=S(=O)(NC[C@H]1CC[C@H](c2ccc(-c3ccc(F)nc3)cc2)N1)c1cccc2cnccc12 [Compound 97]
E. coli W3110; Escherichia coli, W3110, WT
  MIC: 12.5 µM (≈ 5.78 µg/mL)
E. coli W3110
  antimicrobial activity: fourfold less active; also recorded: reduced activity
HEK293T; [2]
  MTT data (raw readout): 1.365 and 1.275 and 1.431
HEK293T; [3]
  MTT data (raw readout): 0.941 and 0.907 and 1.040
HEK293T; [4]
  MTT data (raw readout): 1.367 and 1.278 and 1.395
HEK293T; [5]
  MTT data (raw readout): 0.968 and 0.952 and 1.040
HEK293T; [6]
  MTT data (raw readout): 1.452 and 1.196 and 1.181
HEK293T; [7]
  MTT data (raw readout): 0.930 and 0.987 and 0.817
HEK293T; [8]
  MTT data (raw readout): 1.160 and 1.204 and 1.255
HEK293T; [9]
  MTT data (raw readout): 0.874 and 0.902 and 0.863
HEK293T; [10]
  MTT data (raw readout): 1.307 and 1.173 and 1.284
HEK293T; [11]
  MTT data (raw readout): 0.763 and 0.774 and 0.841
HEK293T
  IC50: 39 µM
HepG2; [12]
  MTT data (raw readout): 0.311 and 0.313 and 0.321
HepG2; [13]
  MTT data (raw readout): 0.270 and 0.220 and 0.207
HepG2; [14]
  MTT data (raw readout): 0.289 and 0.307 and 0.326
HepG2; [15]
  MTT data (raw readout): 0.263 and 0.259 and 0.236
HepG2; [16]
  MTT data (raw readout): 0.296 and 0.298 and 0.289
HepG2; [17]
  MTT data (raw readout): 0.257 and 0.247 and 0.226
HepG2; [18]
  MTT data (raw readout): 0.322 and 0.321 and 0.315
HepG2; [19]
  MTT data (raw readout): 0.242 and 0.234
HepG2; [20]
  MTT data (raw readout): 0.327 and 0.348 and 0.347
HepG2; [21]
  MTT data (raw readout): 0.240 and 0.213
HepG2; Homo sapiens, HepG2, 24 h
  IC50: > 100 µM
HepG2
  IC50: > 50 µM
K. pneumoniae ATCC 29665; [1]
  MIC: 25 µM (≈ 11.6 µg/mL)
